The results in this text go back to patent US10231980B2, “Cortexolone 17alpha-benzoate for use in the treatment of tumours” (COSMO TECHNOLOGIES LTD., priority 2014, dated 2019).

Where two headings read alike, the source gives them in different places.

Series [1] relates to MCF7. Kind of series: In vitro proliferation / cytotoxic assay on breast cancer cells (Examples 14, 25). The following applies: for effect on viability, in words: MCF7. The protocol: (§1) Data shown in Table I were fitted through sigmoidal dose response curves and analyzed using Prizm statistical.
(§2) For the cytotoxic assay, cells were seeded in 96-well flat bottom culture plates in media containing charcoal stripped serum. After 24 hours, test compounds were added to the cells. DMSO was used as the vehicle negative control and RU486 as the positive control. After 72 hour incubation, cells were harvested and lysed to determine cell viability using the Cell Titer Glow assay.

Series [2] deals with 7 cancer cell lines. In words: Therapeutic index over a panel of cancer cell lines. Particulars: average over the cancer cell lines of Table VII. The format is cell-based. On the procedure: The compound toxicity was determined as follow:
Therapeutic Index=Safety/Potency=IC50 stimulated PBMC/IC50 cancer cell

For series [3], the system named is HT29. In words: MTT colorimetric assay on epithelial intestinal cancer cells. The format is cell-based. The following applies: for IC50: Homo sapiens, HT-29, HT29. The protocol:
The experiment was performed to test and define anticancer activity in vitro of Cortexolone 17α-benzoate and cortexolone 17α-valerate, 21-propionate on cell lines representatives of epithelial intestinal tumours, namely HT29. The experiment method consisted in: • 1. Monolayer HT-29 cells were plated in: 96-wells plates at the density of 2×10^4 cells/mL. The cells plated were kept at 37° C. in 5% CO2 and left to attach for 24 h. • 2. […] After 72 h of treatment, the MTT colorimetric assay was performed.
On the technique in general: Formazan colour is commonly taken as a measure of viable cells.

For series [4], the system named is stimulated PBMC. In words: IC50 on stimulated (actively dividing) PBMC. In kind it is cell-based, human. Particulars: PBMC Stim; Table IV.
The test system of series [5] is caspases 8, 9, 3/7 in MiaPaca2 cells. In words: Caspase 8, 9 and 3/7 activity. In kind it is cell-based.
Description: To better analyze the phenomenon, the enzymatic activity of Caspase 8 (initiator caspase for Extrinsic Pathway) and Caspase 9 (initiator caspase for Intrinsic Pathway) and of Caspases 3 and 7 (effector caspases) were measured.
Gemcitabine (a known pancreatic cancer chemotherapeutic agent) and DMSO were used as positive and negative controls, respectively. There were three incubation time points: 8 hours, 24 hours, and 48 hours. After each time point, cells were lysed in multiplex buffer containing the caspase 3/7 substrate combined with either caspase 8 or caspase 9 reagents, which contain stable luciferase in proprietary buffers. The lysates were transferred to white opaque 96-well plates before measuring luminescence on a Tecan Safire instrument. Parallel plates treated identically were used to determine cell viability. All caspase activities were corrected for the number of viable cells.
For series [6], the system named is LNCaP. Kind of series: ATP-dependent cell viability assay (Cell Titer Glo), Example 12. Particulars: for IC50: Homo sapiens, LNCaP.
Description: as §1
(Cellular ATP, detected with luciferase, serves as a proxy for viable cell number.)

Series [7] has as its system MiaPaca2. The description is as above. The following applies: human, 3 days.
Description: as §1

For series [8], the system named is Panc1. Described as above. The following applies: human, 3 days.
Description: as §1

In series [9] the test system is PC3. Described as above. The following applies: for IC50: Homo sapiens.
Description: as §1

Series [10] has as its system MDA-MB-231. In words: In vitro proliferation / cytotoxic assay on breast cancer cells (Examples 14, 25). The format is cell-based. The following applies: Homo sapiens; MDA-MB-231; at 100 μM; read-out: maximum inhibition of viability. On the procedure:
as §1, §2

With `CCCCC(=O)O[C@]1(C(=O)CO)CC[C@H]2[C@@H]3CCC4=CC(=O)CC[C@]4(C)[C@H]3CC[C@@]21C` [CB-03-05, cortexolone 17α-valerate], the “effect on viability, in words” value in series [1] was “only active in MCF7”. Moreover, the “Therapeutic Index = IC50 resting PBMC/IC50 cancer cell” value in series [1] (human, 3 days) came to 3; in series [3] (human, 72 h) it was 4; in series [4], 1; in series [6] (human, 3 days) it was 4; in series [7] it was 2; in [8], 2. In addition, in [9] (human, 3 days), the “Therapeutic Index = IC50 resting PBMC/IC50 cancer cell” value came to 1. The “Therapeutic Index = IC50 stimulated PBMC/IC50 cancer cell” value came to 3 in [1] (human, 3 days); 4 in [3] (human, 72 h); 4 in [6] (human, 3 days); 2 in series [7]; 2 in series [8]; 1 in series [9] (human, 3 days). Moreover, in series [2], the “Therapeutic Index = IC50 stimulated PBMC/IC50 cancer cell, AVERAGE” value is recorded as 3. The IC50 in series [3] (Table III, read-out: in vitro proliferation IC50) turned out to be 35 µM; in series [3] (Table IV, read-out: In vitro proliferation IC50), 35 µM; in [6], 32 µM; in series [6] (72 h) it was 32 µM; in series [6] (read-out: In vitro proliferation IC50), 32 µM; in series [6] (read-out: in vitro proliferation IC50) it was 32 µM. For the same compound, the IC50 in [9] (PC-3, 72 h, PC3, Tables I and II, titrated 3 uM to 200 uM, 3 days) stood at 170 µM; in [9] (PC-3, read-out: In vitro proliferation IC50, PC3, Table IV), 170 µM; in series [9] (PC-3, read-out: in vitro proliferation IC50, PC3, Table III) it was 170 µM. In addition, the “profile for caspase activation” value in [5] is listed as “does not show a good profile for caspase activation”.

Take `CC#C[C@]1(O)CC[C@H]2[C@@H]3CCC4=CC(=O)CCC4=C3[C@@H](c3ccc(N(C)C)cc3)C[C@@]21C` [RU486, Mifepristone, reference compound]: in [1], the “effect on viability, in words” value is given as “does not affect”. Moreover, the IC50 entry in [1] (MCF7 (ER+PR+GR+/−), 72 hour, Table VI) is listed as “Not active”. In series [10], the cytotoxicity at 100 µM amounted to 25%.
